What all share (test): Bliss excess, mean over the matrix (fraction); higher = more synergy
One assay concerns SK-N-AS (Neuroblastoma). A digest of the protocol:
(§1)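 Cell lines grown in DMEM/F12 or RPMI with 10% FBS were plated in 1536-well plates and held 24 hours at 37°C, 5% CO2 before 72 hours of exposure to two-drug dose matrices, with DMSO typically at 0.2%. CellTiter-Glo 2.0 luminescence gave viability, which was converted to inhibition. Vehicle wells were set to 0 and blank wells to 1. Combination Emax is the second-highest inhibition in the matrix, and Bliss excess is the observed combination effect minus the expected EA + EB − EA·EB, where EA and EB are the single-agent effects.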

The subject of assay [1] is HCC1500 (Breast Carcinoma). A digest of the protocol:
as §1

Assay [2] concerns NCI-H650 (Lung Adenocarcinoma). In short, it runs like this: as §1
For assay [3], the system named is NCI-H1355 (Lung Adenocarcinoma). A digest of the protocol:
as §1

The test system of assay [4] is NCI-H1838 (Lung Adenocarcinoma). In short, it runs like this:
as §1

Assay [5] deals with COLO-668 (Small Cell Lung Carcinoma). A digest of the protocol:
as §1

In assay [6] the test system is Mo-T (Other Blood Carcinomas). In short, it runs like this: as §1
Assay [7] relates to LC-1-sq (Squamous Cell Lung Carcinoma). In short, it runs like this:
as §1

Assay [8] deals with NCI-H522 (Lung Adenocarcinoma). In short, it runs like this:
as §1

The test system of assay [9] is ME-180 (Cervical Carcinoma). In short, it runs like this:
as §1

Assay [10] concerns SKN (Other Solid Carcinomas). In short, it runs like this:
as §1

Assay [11] has as its system MDA-MB-453 (Breast Carcinoma). In short, it runs like this: as §1
Assay [12] deals with NCI-H2122 (Lung Adenocarcinoma). A digest of the protocol: as §1
Assay [13] has as its system G-401 (Other Solid Carcinomas). A digest of the protocol:
as §1

Assay [14] concerns MOLT-4 (T-Lymphoblastic Leukemia). In short, it runs like this: as §1
In assay [15] the test system is A4-Fuk (B-Lymphoblastic Leukemia). In short, it runs like this:
as §1

The subject of a further assay is COLO-679 (Melanoma). A digest of the protocol: as §1
Assay [16] has as its system ML-2 (Acute Myeloid Leukemia). In short, it runs like this:
as §1

Assay [17] deals with ALL-SIL (T-Lymphoblastic Leukemia). In short, it runs like this: as §1
The subject of assay [18] is OE33 (Esophageal Adenocarcinoma). In short, it runs like this: as §1

With `CN(CCO)CC[C@H](CSc1ccccc1)Nc1ccc(S(=O)(=O)NC(=O)c2ccc(N3CCC([C@@H](O)c4ccccc4-c4ccc(Cl)cc4)CC3)cc2)cc1S(=O)(=O)C(F)(F)F` [AZD4320] + C=CCn1c(=O)c2cnc(Nc3ccc(N4CCN(C)CC4)cc3)nc2n1-c1cccc(C(C)(C)O)n1 [AZD1775] (first compound max 1 µM, partner max 1 µM), the Bliss excess is -0.0292 in the assay on SK-N-AS (Neuroblastoma); 0.11 in [1]; 0.0369 in [2]; 0.0162 in assay [3]; -0.0311 in assay [4]; 0.0801 in [5]. In addition, the Bliss excess was 0.0529 in assay [6]; 0.0279 in assay [7]; -0.0299 in assay [8]; -0.0304 in assay [9]; 0.0666 in [10]; 0.047 in [11]. Also, the Bliss excess is -0.0143 in assay [12]; -0.0058 in [13]; 0.0674 in assay [14]; -0.0107 in assay [15]; -0.0078 in the assay with COLO-679 (Melanoma); -0.0228 in assay [16]. The Bliss excess in [17] was 0.0693; in [18] it was -0.0093.
Take `CN(CCO)CC[C@H](CSc1ccccc1)Nc1ccc(S(=O)(=O)NC(=O)c2ccc(N3CCC([C@@H](O)c4ccccc4-c4ccc(Cl)cc4)CC3)cc2)cc1S(=O)(=O)C(F)(F)F` [AZD4320] + CN(C)CCCOc1ccc(-c2ccc3ncc4c(c3c2)n(C2CCOCC2)c(=O)n4C)cn1 [AZD0156] (first compound max 1 µM, 7x7, partner max 1 µM): the Bliss excess with SK-N-AS (Neuroblastoma) is -0.0331; in [1], 0.0352; in [2] it was -0.0182; in assay [3], -0.0888; in assay [4] it was 0.0135; in assay [5] it was 0.0435. Further, the Bliss excess in assay [6] was -0.0982; in assay [7], 0.0065; in assay [8], -0.027; in [9] it was -0.0339; in [10], -0.0296; in assay [11], -0.0449. Moreover, the Bliss excess in assay [12] is -0.0121; in [13], -0.0506; in [14], 0.0052; in assay [15], -0.0077; in the assay on COLO-679 (Melanoma), -0.068; in assay [16] it was -0.0056. Also, the Bliss excess in assay [17] was 0.0035; in [18], -0.0312.
Regarding `COc1nnc2ccc(N3CCC(c4ccc(OCCN5CCN(C)C(=O)[C@H]5C)cc4)CC3)nn12` [AZD5153] + C=CCn1c(=O)c2cnc(Nc3ccc(N4CCN(C)CC4)cc3)nc2n1-c1cccc(C(C)(C)O)n1 [AZD1775] (first compound max 1 µM, partner max 1 µM), the Bliss excess in the assay on SK-N-AS (Neuroblastoma) is -0.056; in [1], 0.0305; in [2], -0.0866; in [3], 0.0155; in assay [4], -0.0531; in assay [5] it was -0.0349. The Bliss excess in assay [6] was -0.0532; in assay [7], -0.0288; in [8], -0.0617; in [9], -0.022; in assay [10], -0.0027; in assay [11], -0.0243. The Bliss excess is -0.0432 in assay [12]; -0.0526 in assay [13]; 0.0171 in [14]; -0.109 in [15]; -0.042 with COLO-679 (Melanoma); -0.0214 in assay [16]. In addition, the Bliss excess was -0.0289 in assay [17] and -0.0386 in [18].
On to `COc1nnc2ccc(N3CCC(c4ccc(OCCN5CCN(C)C(=O)[C@H]5C)cc4)CC3)nn12` [AZD5153] + CC1(C)CCC(CN2CCN(c3ccc(C(=O)NS(=O)(=O)c4ccc(NCC5CCOCC5)c([N+](=O)[O-])c4)c(Oc4cnc5[nH]ccc5c4)c3)CC2)=C(c2ccc(Cl)cc2)C1 [Venetoclax] (first compound max 1 µM, 7x7, partner max 1 µM), for which the Bliss excess with SK-N-AS (Neuroblastoma) was -0.0792; in assay [1], -0.04; in [2] it was -0.132; in assay [3], -0.0243; in assay [4], -0.0605; in assay [5], 0.0229. Besides, the Bliss excess in assay [6] was -0.0447; in assay [7], 0.0066; in [8] it was -0.0711; in assay [9] it was -0.0515; in assay [10] it was -0.0295; in [11], -0.0381. Moreover, the Bliss excess in assay [12] was -0.041; in assay [13], -0.0959; in assay [14] it was -0.0198; in assay [15], -0.0678; in the assay on COLO-679 (Melanoma), -0.0818; in [16], 0.0122. In addition, the Bliss excess is 0.0565 in assay [17] and -0.0775 in [18].
As to `COc1nnc2ccc(N3CCC(c4ccc(OCCN5CCN(C)C(=O)[C@H]5C)cc4)CC3)nn12` [AZD5153] + CCN(CCO)CCCOc1ccc2c(Nc3cc(CC(=O)Nc4cccc(F)c4)[nH]n3)ncnc2c1 [AZD2811] (first compound max 1 µM, 7x7, partner max 1 µM), the Bliss excess in the assay on SK-N-AS (Neuroblastoma) was -0.0065; in assay [1], 0.0233; in assay [2], 0.0112; in assay [3], 0.0143; in assay [4], -0.0282; in [5], -0.0268. For the same molecule, the Bliss excess in assay [6] was 0.0014; in assay [7], -0.0282; in assay [8] it was -0.115; in assay [9], -0.0644; in assay [10], -0.0711; in assay [11] it was -0.0087. In addition, the Bliss excess in assay [12] was -0.08; in assay [13], -0.0625; in [14], 0.0277; in assay [15], -0.0025; with COLO-679 (Melanoma) it was -0.0181; in [16], -0.0355. Moreover, the Bliss excess in [17] was 0.0139; in assay [18] it was -0.0523.
Consider `COc1nnc2ccc(N3CCC(c4ccc(OCCN5CCN(C)C(=O)[C@H]5C)cc4)CC3)nn12` [AZD5153] + C[C@@H]1COCCN1C2=NC(=NC(=C2)C3(CC3)[S@](=N)(=O)C)C4=C5C=CNC5=NC=C4 [AZD6738] (first compound max 1 µM, 7x7, partner max 10 µM), for which the Bliss excess with SK-N-AS (Neuroblastoma) is 0.002; in assay [1], 0.0792; in assay [2] it was 0.0125; in [3], -0.006; in [4], 0.0023; in assay [5], 0.0137. In addition, the Bliss excess is -0.0184 in [6]; 0.0175 in [7]; -0.0075 in [8]; -0.0108 in assay [9]; 0.0365 in [10]; -0.0534 in assay [11]. Further, the Bliss excess was -0.0163 in [12]; -0.0078 in assay [13]; 0.0394 in assay [14]; -0.117 in [15]; 0.0003 in the assay on COLO-679 (Melanoma); -0.0116 in assay [16]. For the same molecule, the Bliss excess is 0.079 in assay [17] and -0.0427 in assay [18].

For the origin of these results see the supplement of paper PMC11061612.
